Measured values taken from patent US8822449B2, “Substituted aminoindanes and analogs thereof, and the pharmaceutical use thereof” (Sanofi, priority 2008, dated 2014).

Molecular target: T1, sodium-proton exchanger of subtype 3 (NHE3) (Homo sapiens, UniProt P48764)
T1 construct: expressed in transfected cells
T1 sequence (P48764 26-834): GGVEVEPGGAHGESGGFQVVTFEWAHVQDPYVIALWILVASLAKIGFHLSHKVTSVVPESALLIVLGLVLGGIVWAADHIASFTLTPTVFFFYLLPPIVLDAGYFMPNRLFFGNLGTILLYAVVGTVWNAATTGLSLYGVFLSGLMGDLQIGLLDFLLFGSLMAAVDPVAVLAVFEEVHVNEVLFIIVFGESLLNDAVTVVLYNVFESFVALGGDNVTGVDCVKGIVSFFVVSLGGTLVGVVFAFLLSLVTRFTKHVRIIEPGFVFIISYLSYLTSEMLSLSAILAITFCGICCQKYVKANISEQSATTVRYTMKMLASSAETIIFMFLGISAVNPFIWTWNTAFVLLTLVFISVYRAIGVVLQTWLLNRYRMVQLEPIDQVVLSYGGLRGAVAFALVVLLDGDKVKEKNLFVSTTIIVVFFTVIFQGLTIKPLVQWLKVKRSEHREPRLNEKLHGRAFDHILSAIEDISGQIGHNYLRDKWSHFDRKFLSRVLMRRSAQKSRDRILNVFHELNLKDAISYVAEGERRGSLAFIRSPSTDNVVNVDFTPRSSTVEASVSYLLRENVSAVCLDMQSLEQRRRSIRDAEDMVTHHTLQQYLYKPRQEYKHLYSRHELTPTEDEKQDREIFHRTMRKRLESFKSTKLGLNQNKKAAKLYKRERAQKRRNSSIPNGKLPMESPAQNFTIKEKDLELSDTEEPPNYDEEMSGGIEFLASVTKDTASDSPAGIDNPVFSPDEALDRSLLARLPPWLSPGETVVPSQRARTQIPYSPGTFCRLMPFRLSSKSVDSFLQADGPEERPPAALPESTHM
Test: Recovery of intracellular pH (pHi) after acidification in LAP1 cells stably expressing NHE3 (BCECF fluorescence, FLIPR)
Type: cell-based
Conditions: LAP1 cells stably expressing NHE3; pH recovery after acidification; range 1 is % inhibition at 10 μM; read-out: Activity range (inhibitory effect on NHE3)

Structure (SMILES)	IC50 [µM]	inhibition at 10 µM [%]
Cc1nnc(C)n1-c1ccc(O[C@H]2c3ccccc3C[C@@H]2N2CCC[C@@H](NCCC(F)(F)F)C2)cc1 [Example 1, ((R)-1-{trans-(1S,2S)-1-[4-(3,5-dimethyl-[1,2,4]triazol-4-yl)phenoxy]indan-2-yl}piperidin-3-yl)-(3,3,3-trifluoropropyl)amine]	1 to 10	–
CS(=O)(=O)c1ccc(O[C@H]2c3cc(Cl)cc(Cl)c3C[C@@H]2N2CCCNCC2)cc1 [Example 298, 1-[trans-(1S,2S)-4,6-dichloro-1-(4-methanesulfonylphenoxy)indan-2-yl]-[1,4]diazepane]	< 1	–
CS(=O)(=O)c1ccc(O[C@H]2c3ccccc3C[C@@H]2N2CCC[C@@H](N)C2)cc1 [Example 95, (R)-1-[trans-(1S,2S)-1-(4-methanesulfonylphenoxy)indan-2-yl]piperidin-3-ylamine]	< 1	–
COc1ccc(O[C@H]2c3ccccc3CC[C@@H]2N2CCC[C@@H](N)C2)c(F)c1 (racemic) [Example 42, (R)-1-[rac-trans-(1,2)-1-(2-fluoro-4-methoxyphenoxy)-1,2,3,4-tetrahydronaphthalen-2-yl]piperidin-3-ylamine]	–	20 to 50
N[C@@H]1CCCN([C@H]2CCc3ccccc3[C@@H]2Oc2ccc(F)cc2)C1 (racemic) [Example 70, (R)-1-[rac-trans-(1,2)-1-(4-fluorophenoxy)-1,2,3,4-tetrahydronaphthalen-2-yl]piperidin-3-ylamine]	–	20 to 50
Cn1ccn(-c2ccc(Cl)c(O[C@H]3c4cc(Cl)cc(F)c4C[C@@H]3N3CC[C@@H](O)C3)c2)c1=O [Example 339, 1-{4-chloro-3-[(1S,2S)-6-chloro-4-fluoro-2-((R)-3-hydroxypyrrolidin-1-yl)indan-1-yloxy]phenyl}-3-methyl-1,3-dihydroimidazol-2-one]	< 1	–
CS(=O)(=O)c1ccc(O[C@H]2c3cc(Cl)cc(F)c3C[C@@H]2N2CC[C@@H](O)C2)cc1 [Example 108, (R)-1-[trans-(1S,2S)-6-chloro-4-fluoro-1-(4-methanesulfonylphenoxy)indan-2-yl]pyrrolidin-3-ol]	1 to 10	–

Further lines, results first:

IC50 [µM]	inhibition at 10 µM [%]	Structure (SMILES)
< 1	–	COCCN1CCCN([C@H]2Cc3c(Cl)cc(Cl)cc3[C@@H]2Oc2ccc(-n3c(C)nnc3C)cc2)CC1 [Example 348, 1-{trans-(1S,2S)-4,6-dichloro-1-[4-(3,5-dimethyl-[1,2,4]triazol-4-yl)phenoxy]indan-2-yl}-4-(2-methoxyethyl)-[1,4]diazepane]
< 1	–	NS(=O)(=O)c1ccc(O[C@H]2c3cc(Cl)ccc3C[C@@H]2N2CCCC2)cc1 (racemic) [Example 473, 4-(rac-trans-(1,2)-6-chloro-2-pyrrolidin-1-ylindan-1-yloxy)benzenesulfonamide]
–	20 to 50	N#Cc1ccc(S[C@H]2c3ccccc3C[C@@H]2N2CCCC2)cc1 [Example 455, 4-((1S,2S)-2-pyrrolidin-1-ylindan-1-ylsulfanyl)benzonitrile]
1 to 10	–	CN(C)CCCN(C)[C@H]1Cc2ccccc2[C@@H]1Oc1ccc(S(C)(=O)=O)cc1 (racemic) [Example 669, N-[rac-trans-(1,2)-1-(4-methanesulfonylphenoxy)indan-2-yl]-N,N′,N′-trimethylpropane-1,3-diamine]
–	20 to 50	N#Cc1c(F)cccc1O[C@H]1c2ccccc2CC[C@@H]1N1CCC[C@H](N)C1 (racemic) [Example 372, 2-[rac-trans-(1,2)-2-((S)-3-aminopiperidin-1-yl)-1,2,3,4-tetrahydronaphthalen-1-yloxy]-6-fluorobenzonitrile]
–	20 to 50	COC(=O)c1ccc(O[C@H]2c3cc(Cl)ccc3C[C@@H]2N2CC[C@@H](O)C2)c(Cl)c1 [Example 446, 3-chloro-4-[trans-(1S,2S)-6-chloro-2-((R)-3-hydroxypyrrolidin-1-yl)indan-1-yloxy]benzoic acid methyl ester]
